Data reported in paper PMC3454376, “Salidroside Improves Behavioral and Histological Outcomes and Reduces Apoptosis via PI3K/Akt Signaling after Experimental Traumatic Brain Injury” (PLoS ONE, 2012).

What was measured:
Format in all cases: in vivo, mice
cytosolic CytoC = assay: Western blot, cytosolic fraction of injured cortex; details: 20 mg/kg ip 10 min after CCI
Description: (§1) Three sets of experiments were performed. The first set was to investigate the protective effects of salidroside. All animals were randomized into 1 of 3 groups (sham injury, CCI + vehicle, CCI + SALD 20). Surgery/injury, behavioral testing, and tissue analyses were performed by different individuals. Behavioral testing and tissue analyses were performed by individuals blinded to the treatment group. Salidroside (Cayman Chemical, Ann Arbor, MI, USA) dissolved in normal saline (0.25 mL) or a corresponding volume of vehicle (saline) was administered intraperitoneally 10 min following injury. Testing after injury was completed as follows: 1) behavioral testing at days 1, 4, 7, 14, 21, and 28 (n = 8–10 mice/group); 2) cresyl violet staining at day 28 (n = 9 mice/group); 3) histology, determination of brain water content, and western blot analysis at day 1 or 3 (n = 5–6 mice/group). To determine the optimal dose of salidroside, a pilot study was performed using 2 different doses (20 and 50 mg/kg) administered 10 min after injury, and neurological deficits and tissue damage were evaluated as the main outcomes. […] The second set of experiment was to assess the effect of the inhibition of PI3K/Akt with the specific PI3K inhibitor, LY294002 (Cell Signaling Technology, Danvers, MA, USA), on salidroside effects. Animals were randomized into 4 groups. Mice received either: 1) icv pretreatment of LY294002 followed by SALD 20 after CCI (S20Y group); or 2) icv pretreatment of saline (vehicle control) followed by SALD 20 after CCI (S20V group). 3) Mice were infused icv with saline and were subjected to sham injury. 4) Mice were infused icv with LY294002 and were subjected to sham injury. Testing after injury was completed as follows: 1) cresyl violet staining at day 28 (n = 6 mice/group); 2) western blot analysis at day 1 (n = 6 mice/group). The third set of experiment was performed to examine the neuroprotective time window afforded by salidroside. Mice received intraperitoneal SALD 20 or vehicle (saline) at 3 or 6 h following CCI and were sacrificed 1 day later for FJB staining and western blot analysis (n = 6 mice/group). Brains of injured or sham animals were collected 1 day and 3 days post CCI or sham surgery, and a 4 mm coronal section from the injured area over the parietal cortex and ipsilateral hippocampus were collected. […] Protein concentration was determined by Bradford reagent spectrophotometrically at A595. […] The relative intensity of protein signals was normalized to the corresponding β-actin intensity and was quantified by densitometric analysis with the use of Image J software. […]

cytosolic Smac/DIABLO = assay: Western blot, cytosolic fraction of injured cortex; details: 20 mg/kg ip 10 min after CCI, P<0.05
Description: as §1

Body weight after CCI = details: P>0.05
Bcl-2/Bax ratio = assay: Western blot, whole cell and mitochondrial fraction; details: 20 mg/kg ip 10 min after CCI
Description: Three sets of experiments were performed. The first set was to investigate the protective effects of salidroside. All animals were randomized into 1 of 3 groups (sham injury, CCI + vehicle, CCI + SALD 20). Surgery/injury, behavioral testing, and tissue analyses were performed by different individuals. Behavioral testing and tissue analyses were performed by individuals blinded to the treatment group. Salidroside (Cayman Chemical, Ann Arbor, MI, USA) dissolved in normal saline (0.25 mL) or a corresponding volume of vehicle (saline) was administered intraperitoneally 10 min following injury. Testing after injury was completed as follows: 1) behavioral testing at days 1, 4, 7, 14, 21, and 28 (n = 8–10 mice/group); 2) cresyl violet staining at day 28 (n = 9 mice/group); 3) histology, determination of brain water content, and western blot analysis at day 1 or 3 (n = 5–6 mice/group). To determine the optimal dose of salidroside, a pilot study was performed using 2 different doses (20 and 50 mg/kg) administered 10 min after injury, and neurological deficits and tissue damage were evaluated as the main outcomes. […] Protein concentration was determined by Bradford reagent spectrophotometrically at A595. […] The relative intensity of protein signals was normalized to the corresponding β-actin intensity and was quantified by densitometric analysis with the use of Image J software. […]

Compound: OC[C@H]1O[C@@H](OCCc2ccc(O)cc2)[C@H](O)[C@@H](O)[C@@H]1O [SALD, salidroside]
- cytosolic CytoC level compared to vehicle-treated injured brains (cytosolic CytoC; day 1, P<0.01): 60.6%
- cytosolic CytoC level compared to vehicle-treated injured brains (cytosolic CytoC; day 3, P<0.05): 54.7%
- cytosolic Smac/DIABLO level compared to vehicle-treated injured brains (cytosolic Smac/DIABLO; day 1): 45.1%
- cytosolic Smac/DIABLO level compared to vehicle-treated injured brains (cytosolic Smac/DIABLO; day 3): 58.1%
- body weight versus vehicle (Body weight after CCI; 20 mg/kg ip after CCI): No significant difference
- body weight versus vehicle (Body weight after CCI; 50 mg/kg ip after CCI): No significant difference
- mitochondrial Bcl-2/Bax ratio, % of the level in vehicle injured brains (Bcl-2/Bax ratio; day 1, P<0.05): 150.6%
- whole cell Bcl-2/Bax ratio, slight increase versus vehicle (Bcl-2/Bax ratio; whole cell level): did not reach statistical significance
